This note sets out measurements from patent publication EP1120414A1, “DISUBSTITUTED MALEIMIDE COMPOUNDS AND MEDICINAL UTILIZATION THEREOF” (Japan Tobacco Inc., priority 1998, dated 2000).

Like-named read-outs stand apart in the source and are kept apart here.

One assay concerns the target T1, PKC α (Homo sapiens, UniProt P17252).
T1 construct: purchased CALBIOCHEM
In words: PKC enzyme assay (BIOTRAK Protein kinase C enzyme assay system, 32P-ATP phosphorylation of peptide […]). In kind it is biochemical. As for the experimental part:
(§1) As the reagent for enzyme assay, BIOTRAK Protein kinase C enzyme assay system (hereinafter the system, Amersham), and as the PKC enzyme standard product, Protein Kinase C, Human Recombinant (CALBIOCHEM) were purchased and used in the assay. A substrate mixture was prepared by mixing calcium buffer (12 mM calcium acetate, 50 mM Tris/HCl pH 7.5, 0.05% (w/v) sodium azide), Lipid (0.3 mg/ml La-phosphatidyl-L-serine, […] phorbol 12-myristate 13-acetate, 50 mM Tris/HCl pH 7.5, 0.05% (w/v) sodium azide), peptide buffer (900 µM peptide […]), 50 mM Tris/HCl pH 7.5, 0.05% (w/v) sodium azide), DTT buffer (30 mM dithiothreitol, 50 mM Tris/HCl pH 7.5, 0.05% (w/v) sodium azide), and magnesium ATP buffer (1.2 mM ATP, […] pH 7.4, 72 mM magnesium chloride) all attached to the system in a ratio of 1:1:1:1:0.8 and adding [ y -32P]ATP (Amersham, cat. […] The PKC enzyme standard product was diluted with an assay buffer (10 mM Hepes pH 7.4, 0.01% Triton X-100) to a concentration of 400 ng/ml and used as the enzyme solution. The substrate mixture and a test substance (diluted to the final concentration of 1 nM-10 µM with dimethyl sulfoxide (DMSO)) were mixed at a ratio of 20:1. The enzyme solution was added in the amount equivalent to the substrate mixture and mixed, which was followed by incubation at 37°C for 15 minutes. The reaction terminator (300 mM orthophosphoric acid containing carmosine red) attached to the system was added in the amount equivalent to the substrate mixture to end the reaction, and the reaction mixture was spotted on a phosphocellulose paper (Whatman, P-81), washed twice with 75 mM orthophosphoric acid and assayed for radioactivity by BAS2000 (Fuji film).
(§2) The ratio of the radioactivity of the addition of the test substance to the addition of DMSO was determined, and IC50 was calculated from inhibition at each concentration.

The next assay deals with T2, PKC β II (Homo sapiens, UniProt P05771).
T2 construct: purchased CALBIOCHEM
T2 sequence (P05771 other isoform, or with tags, fused parts or gaps): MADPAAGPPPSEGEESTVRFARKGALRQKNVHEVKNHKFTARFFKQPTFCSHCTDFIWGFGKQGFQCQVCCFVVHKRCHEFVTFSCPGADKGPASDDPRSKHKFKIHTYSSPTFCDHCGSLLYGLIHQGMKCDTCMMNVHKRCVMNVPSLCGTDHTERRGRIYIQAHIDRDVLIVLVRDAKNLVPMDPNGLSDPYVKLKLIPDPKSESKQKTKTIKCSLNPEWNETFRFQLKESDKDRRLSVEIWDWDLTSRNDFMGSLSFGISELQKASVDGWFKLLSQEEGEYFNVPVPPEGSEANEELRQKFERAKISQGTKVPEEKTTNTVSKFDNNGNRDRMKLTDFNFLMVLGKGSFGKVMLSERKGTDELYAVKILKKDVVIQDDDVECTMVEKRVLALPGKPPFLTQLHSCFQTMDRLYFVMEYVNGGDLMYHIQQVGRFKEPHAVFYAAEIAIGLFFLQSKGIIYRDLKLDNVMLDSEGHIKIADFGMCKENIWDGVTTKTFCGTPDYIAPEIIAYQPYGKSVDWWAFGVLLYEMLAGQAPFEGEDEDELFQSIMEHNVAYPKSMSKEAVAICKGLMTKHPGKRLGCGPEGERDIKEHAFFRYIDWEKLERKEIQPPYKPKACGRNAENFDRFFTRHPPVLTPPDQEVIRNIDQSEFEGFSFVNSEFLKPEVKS
The description is as above. It counts as biochemical.
Source text: The method for determining the PKC inhibitory activity of the compound of the present invention is explained in the following. Inasmuch as PKCβII is present in greater number in intravascular cells than PKCβI, PKCβII was mainly used here to test the enzyme activity.
as §1, §2

Where [1] appears, read: Protein Kinase C, Human Recombinant; test substance 1 nM-10 µM; 37°C, 15 minutes; read-out: Inhibition of PKC activity IC50 PKC α.
Where [2] appears, read: Protein Kinase C, Human Recombinant; test substance 1 nM-10 µM; 37°C, 15 minutes; read-out: Inhibition of PKC activity IC50 PKC β II.
The mark [3] stands for this setting: read-out: Inhibition of PKC activity IC50 PKC α; Protein Kinase C, Human Recombinant; test substance 1 nM-10 µM; 37°C, 15 minutes.
Setting [4] is: read-out: Inhibition of PKC activity IC50 PKC β II; Protein Kinase C, Human Recombinant; test substance 1 nM-10 µM; 37°C, 15 minutes.

With `O=C1NC(=O)C(c2cn(CC3CCCNC3)c3ccccc23)=C1Nc1ccccc1` (stereo not drawn) [Example 3-1, 3-(phenylamino)-4-[1-(3-piperidylmethyl)-1H-indol-3-yl]-1H-pyrrole-2,5-dione], the concentration for half-maximal inhibition (IC50) stood at 484 nM on PKC α (setting [1]) and 18 nM at PKC β II (setting [2]). For the same compound, the “Ratio α/β” value on PKC β II (IC50 PKC α / IC50 PKC β II) is reported as 27.

On to `NC(=O)c1cccc(NC2=C(c3c4n(c5ccccc35)C[C@H](CO)CC4)C(=O)NC2=O)c1` [Example 4-46], for which the IC50 on PKC α (setting [3]) is > 10000 nM; on PKC β II (setting [4]), 89 nM. Moreover, the “Ratio α/β” value on PKC β II (IC50 PKC α / IC50 PKC β II) is given as 112.

Turning to `CNCC1Cc2c(C3=C(Nc4ccc(F)cc4)C(=O)NC3=O)c3ccccc3n2C1` (stereo not drawn) [Example 4-32], the IC50 at PKC α (setting [3]) was found to be 228 nM; at PKC β II (setting [4]), 4 nM. In addition, the “Ratio α/β” value on PKC β II (IC50 PKC α / IC50 PKC β II) amounted to 60.

As to `CCN(C)C[C@@H]1CCc2c(C3=C(Nc4cccc(SC)c4)C(=O)NC3=O)c3ccccc3n2C1` [Example 4-48], the IC50 on PKC α (setting [3]) worked out at 2530 nM; on PKC β II (setting [4]) it was 34 nM. Moreover, at PKC β II (IC50 PKC α / IC50 PKC β II), the “Ratio α/β” value was determined as 74.

With `O=C1NC(=O)C(c2cn(CCCn3ccnc3)c3ccccc23)=C1Nc1ccc(F)cc1` [Example 2-68, 3-[(4-fluorophenyl)amino]-4-[1-(3-imidazol-1-ylpropyl)-1H-indol-3-yl]-1H-pyrrole-2,5-dione], the figures for the IC50 at PKC α (setting [1]) and on PKC β II (setting [2]) were 315 nM and 6 nM, respectively. The “Ratio α/β” value at PKC β II (IC50 PKC α / IC50 PKC β II) was found to be 53.

Consider `CC(C)(C)OC(=O)C1CCN(CCCn2cc(C3=C(Nc4ccccc4)C(=O)NC3=O)c3ccccc32)CC1` [Example 2-51, 3-[1-{3-[4-(tert-butoxycarbonyl)piperidino]propyl}-1H-indol-3-yl]-4-(phenylamino)-1H-pyrrole-2,5-dione], for which the IC50 at PKC α (setting [1]) came out at 1020 nM; at PKC β II (setting [2]) it was 27 nM. Also, the “Ratio α/β” value on PKC β II (IC50 PKC α / IC50 PKC β II) is reported as 38.

On to `CCNCC1Cc2c(C3=C(Nc4ccc(F)cc4)C(=O)NC3=O)c3ccccc3n2C1` (stereo not drawn) [Example 4-33], for which the IC50 at PKC α (setting [3]) amounted to 321 nM; on PKC β II (setting [4]) it was 4 nM. For the same compound, on PKC β II (IC50 PKC α / IC50 PKC β II), the “Ratio α/β” value turned out to be 75.

Consider `Cc1cn(CCCn2cc(C3=C(Nc4cccc(Cl)c4)C(=O)NC3=O)c3ccccc32)cn1` [Example 2-58, 3-[(3-chlorophenyl)amino]-4-[1-{3-(4-methyl-imidazol-1-yl)propyl}-1H-indol-3-yl]-1H-pyrrole-2,5-dione], for which the figures for the concentration for half-maximal inhibition (IC50) on PKC α (setting [1]) and at PKC β II (setting [2]) were 842 nM and 18 nM, respectively. The “Ratio α/β” value on PKC β II (IC50 PKC α / IC50 PKC β II) is listed as 47.

As for “3-[(3-chlorophenyl)amino]-4-[1-{3-(4-hydroxymethyl-imidazol-1-yl)propyl}-1H-indol-3-yl]-1H-pyrrole-2,5-dione and 3-[(3-chlorophenyl)amino]-4-[1-{3-(5-hydroxymethyl-imidazol-1-yl)propyl}-1H-indol-3-yl]-1H-pyrrole-2,5-dione [Example 2-60]”, the figures for the half-inhibitory concentration (IC50) at PKC α (setting [1]) and on PKC β II (setting [2]) were 762 nM and 16 nM, respectively. Moreover, the “Ratio α/β” value at PKC β II (IC50 PKC α / IC50 PKC β II) was 48.

For `Cc1nccn1CCCn1cc(C2=C(Nc3ccccc3)C(=O)NC2=O)c2ccccc21` [Example 2-61, 3-[1-{3-(2-methylimidazol-1-yl)propyl}-1H-indol-3-yl]-4-(phenylamino)-1H-pyrrole-2,5-dione], the 50% inhibitory concentration (IC50) on PKC α (setting [1]) worked out at 401 nM; on PKC β II (setting [2]), 9 nM. Also, the “Ratio α/β” value at PKC β II (IC50 PKC α / IC50 PKC β II) was determined as 45.

Turning to `O=C1NC(=O)C(c2cn(CCCN3CCC(N4CCCCC4)CC3)c3ccccc23)=C1Nc1ccccc1` [Example 2-31, 3-(phenylamino)-4-[1-{3-(4-piperidinopiperidino)propyl}-1H-indol-3-yl]-1H-pyrrole-2,5-dione], the values for the IC50 at PKC α (setting [1]) and on PKC β II (setting [2]) were 703 nM and 12 nM, respectively. Moreover, on PKC β II (IC50 PKC α / IC50 PKC β II), the “Ratio α/β” value is 59.

For `Cc1cncn1CCCn1cc(C2=C(Nc3cccc(Cl)c3)C(=O)NC2=O)c2ccccc21` [Example 2-59, 3-[(3-chlorophenyl)amino]-4-[1-{3-(5-methyl-imidazol-1-yl)propyl}-1H-indol-3-yl]-1H-pyrrole-2,5-dione], the results for the half-inhibitory concentration (IC50) at PKC α (setting [1]) and on PKC β II (setting [2]) were 356 nM and 8 nM, respectively. For the same compound, the “Ratio α/β” value on PKC β II (IC50 PKC α / IC50 PKC β II) amounted to 45.

The term IC50 denotes the concentration needed to halve the response being measured.
